Tests used:
[1] = for vapor or sublimation pressure: Closed cell (Static) method; for Triple point temperature: DTA
[2] = Molar enthalpy of transition or fusion; conditions: Crystal; DSC
[3] = molar heat capacity at constant pressure; conditions: 298.15 K, 101.33 kPa, Drop calorimetry

OCC(F)(F)C(F)(F)C(F)(F)C(F)(F)C(F)(F)C(F)(F)C(F)(F)C(F)(F)C(F)(F)F [1H,1H-perfluoro-1-decanol]
[1], Crystal
Conditions	vapor or sublimation pressure [kPa]
303.92 K	0.00452
308 K	0.00755
312.98 K	0.01315
318.07 K	0.02289
323.07 K	0.03765
327.88 K	0.06457
332.84 K	0.1045
337.79 K	0.1714
342.75 K	0.2677
347.71 K	0.414
352.65 K	0.6247
355.65 K	0.8008
358.15 K	0.97

Conditions	Triple point temperature [K]
[1], Crystal	358.5

Conditions	Molar enthalpy of transition or fusion [kcal/mol]
[2]	3.8

OCC(F)(F)C(F)(F)C(F)(F)C(F)(F)C(F)(F)C(F)(F)C(F)(F)F [2,2,3,3,4,4,5,5,6,6,7,7,8,8,8-pentadecafluoro-1-octanol]
[1]
Conditions	vapor or sublimation pressure [kPa]
268.27 K, Crystal	0.00104
273.24 K, Crystal	0.00201
278.21 K, Crystal	0.00388
283.17 K, Crystal	0.00714
288.15 K, Crystal	0.01272
293.15 K, Crystal	0.02273
295.64 K, Crystal	0.03033
298.14 K, Crystal	0.03911
300.61 K, Crystal	0.05177
303.13 K, Crystal	0.06648
305.62 K, Crystal	0.08724
308.1 K, Crystal	0.1113
310.56 K, Crystal	0.1412
313.08 K, Crystal	0.1815
315.52 K, Crystal	0.2288
318.05 K, Crystal	0.2936
320.52 K, Liquid	0.3615
323.01 K, Liquid	0.4351
325.52 K, Liquid	0.524
328.01 K, Liquid	0.6236
330.49 K, Liquid	0.7457
332.97 K, Liquid	0.871
335.47 K, Liquid	1.048
337.97 K, Liquid	1.233
339.44 K, Liquid	1.359

Crystal
Conditions	Triple point temperature [K]	molar heat capacity at constant pressure [J/K/mol]
[1]	318.2	–
[3]	–	468.6

Conditions	Molar enthalpy of transition or fusion [kcal/mol]
[2]	2.84

OCC(F)(F)C(F)(F)C(F)(F)C(F)(F)C(F)(F)C(F)(F)F [2,2,3,3,4,4,5,5,6,6,7,7,7-tridecafluoro-1-heptanol]
[1], Liquid
Conditions	vapor or sublimation pressure [kPa]
275.55 K	0.01786
278.02 K	0.02308
280.53 K	0.03001
282.99 K	0.03804
285.49 K	0.04858
287.97 K	0.06227
290.46 K	0.07837
292.95 K	0.09912
295.45 K	0.1247
297.97 K	0.1587
300.43 K	0.1946
302.94 K	0.2431
305.4 K	0.294
307.91 K	0.3632
310.39 K	0.4344
312.88 K	0.5339
315.35 K	0.6248
317.87 K	0.7553

Conditions	molar heat capacity at constant pressure [J/K/mol]
[3], Liquid	476.8

OCC(F)(F)C(F)(F)C(F)(F)C(F)(F)C(F)(F)C(F)(F)C(F)(F)C(F)(F)F [2,2,3,3,4,4,5,5,6,6,7,7,8,8,9,9,9-heptadecafluoro-1-nonanol]
[1]
Conditions	vapor or sublimation pressure [kPa]
275.71 K, Crystal	0.00048
278.17 K, Crystal	0.00067
283.16 K, Crystal	0.00128
288.15 K, Crystal	0.0025
293.14 K, Crystal	0.00477
298.11 K, Crystal	0.00866
303.13 K, Crystal	0.01568
308.1 K, Crystal	0.02727
313.09 K, Crystal	0.04767
318.06 K, Crystal	0.07933
323.03 K, Crystal	0.13
342.99 K, Liquid	0.8017
344 K, Liquid	0.8571
345.48 K, Liquid	0.9447
347.97 K, Liquid	1.11
350.45 K, Liquid	1.3
351.45 K, Liquid	1.383

Conditions	Triple point temperature [K]
[1], Crystal	342.2

Conditions	Molar enthalpy of transition or fusion [kcal/mol]
[2]	3.97

OCC(F)(F)C(F)(F)C(F)(F)C(F)(F)C(F)(F)C(F)(F)C(F)(F)C(F)(F)C(F)(F)C(F)(F)F [1H,1H-perfluoroundecan-1-ol]
[1], Crystal
Conditions	vapor or sublimation pressure [kPa]
310.53 K	0.00219
313.02 K	0.00299
315.51 K	0.00402
318 K	0.00537
320.48 K	0.00715
323 K	0.00968
325.47 K	0.01321
327.95 K	0.01724
330.42 K	0.02207
332.87 K	0.02909
335.42 K	0.03815
337.85 K	0.04977
340.35 K	0.06415
342.81 K	0.08275
345.3 K	0.1064
347.8 K	0.1361

Conditions	Triple point temperature [K]
[1], Crystal	374

Conditions	Molar enthalpy of transition or fusion [kcal/mol]
[2]	5.35

— the NIST ThermoML archive (doi:10.1016/j.jct.2012.03.027)
